From patent publication US10315990B2, “Isothiocyanate compounds and isothiocyanate XPO1 protein inhibitor drugs thereof” (DRIVINGFORCE THERAPEUTICS Co., Ltd., priority 2015, dated 2019)
pIC50: −log10 of the molar value.

Legend:
IL-6 = experiment: Serum IL-6 level of IBD animal model (ELISA); format: in vivo, SD rats; details: 80 mg/kg, three days after making the TNBS model
From the text: (§1) Inflammatory bowel disease is an autoimmune disease. […] The therapeutic effect of the representative compound for the immune system disease or inflammation can be assessed by detecting change in levels of some important cytokines such as TNF-α and IL-6 at downstream of the signal path.

TNF-α = experiment: Serum TNF-α level of IBD animal model (ELISA); format: in vivo, SD rats; details: 80 mg/kg, three days after making the TNBS model
From the text: as §1

IBD animal model = experiment: Macroscopic pathological changes of IBD animal model (enteroclysis with TNBS); format: in vivo, SD rats; details: TNBS rats; for Macroscopic pathological score: 80 mg/kg intragastrically daily, score 0-5, 10 animals
Method: Eight-week-old male SD rats (10 rats per group) were fasted for 24 hours and anaesthetized with diethyl ether. 50% ethanol and TNBS (2,4,6-trinitrobenzenesulfonic acid) were mixed to prepare a solution. In the IBD model group, a tube made of vinyl resin was inserted 5 cm from anus, and enteroclysis was performed with the TNBS solution in a dose of 100 mg/kg. The rats were hung upside down 30 seconds later after the enteroclysis to ensure no leakage of the TNBS solution. In the control group, the TNBS solution was replaced with normal saline with which enteroclysis was performed. Seven days later after the enteroclysis with the TNBS solution or normal saline, animals were sacrificed and dissected. […] Two weeks later after treated with the drugs, the animals were sacrificed and dissected, and large intestine thereof was taken out and fixed in 4% formalin solution for 30 minutes. The large intestine of the animals was cut lengthwise from the mesentery side to take photos for rectum portion and measure the weight of rectum. Based on the macroscopic observation and judgment score (Table 2-1), ulceration and bleeding states of rectum portion were scored according to the macroscopic observation scoring standard.

HMLE-Snail cell line = experiment: Formation of HMLE-Snail cell line spheroids; format: cell-based; details: 10 μg/ml, treated for 24 hours; control = 100; read-out: Colony (%): cell colony number of drug-treated group/cell colony number of control group × 100%
Method: HMLE-Snail cell line is one of most classic cell models for studying tumor cell metastasis and EMT path. HMLE-Snail cell line highly expresses Snail protein, and thus one of most remarkable features thereof is that it has spherical cellular morphology (spheroid). […] The HMLE-Snail cell line used in the present invention was donated by Dr. Robert Weinberg from America Massachusetts Whitehead Institute. HMLE-Snail cells were suspended in a liquid culture medium (in which B-27 and N-2 were added, purchased from America Invitrogen Corporation) containing DMEM/F12 in a ratio of 1:1, in an amount of 1.0×10^3 cells/ml, and cultured in an ultra low attachment culture plate so as to allow spheroids to be formed. Seven days later, spheroids were collected by centrifugation, and counted. […] Docetaxel is a common clinical chemotherapy drug.

XPO1 protein = target: T1, XPO1 protein (Homo sapiens, UniProt O14980); experiment: Inhibitory activity for XPO1 protein (NES-GFP nuclear export, laser confocal microscope); format: cell-based; details: NES-GFP nuclear export, cells treated for 2 hours
T1 construct: Sixteen hours later, NES-GFP plasmid was transfected with liposome; endogenous in cells
From the text: NES (nuclear export signal) is a nuclear export signal peptide recognized by XPO1 protein. XPO1 recognizes NES sequence peptide segment of biomacromolecule and exports the biomacromolecule out of nucleus. NES-GFP protein is obtained by co-expressing green fluorescence protein GFP and NES sequence peptide segment by using a eukaryotic expression plasmid. Inhibitory activity of the representative compound for XPO1 protein can be assessed by detecting influence of the compound on NES-GFP cell localization.
The cells were digested with trypsin, counted, and inoculated on 96-well plate in an amount of 1.5×10^4 cells per well. Sixteen hours later, NES-GFP plasmid was transfected with liposome.

NCI-H1650 = experiment: cells; format: cell-based; details: Homo sapiens; NCI-H1650, 72 hours; read-out: IC50
Method: (§2) NCI-H1975 and NCI-H1650 are two typical high metastasis type lung cancer cell lines. The therapeutic effect of the representative compound for the metastasis type lung cancers can be preliminarily assessed by detecting the inhibitory activity of the representative compound for the two cell lines. The lung cancer cell line was inoculated on 96-well cell culture plate in an amount of 6000 cells per well and cultured at 37° C. for 24 hours, and then treated solely with the compound added therein and cultured. Seventy-two hours later, MTT or CCK-8 method was used to detect the inhibitory activity of the compound for the two lung cancer cell lines.

NCI-H1975 = experiment: cells; format: cell-based; details: Homo sapiens; NCI-H1975, 72 hours; read-out: IC50
Method: as §2

[1] = tested on: SK-OV3 (high metastasis type ovarian cancer cell line); experiment: Ovarian cancer intraperitoneal metastasis animal model; format: in vivo, nudemice (BALB/c-nu/nu); details: Mus musculus, SK-OV-3, ip; for response vs control in vivo at 80 mg/kg: 80 mg/kg intraperitoneal injection once a day for 3 weeks; for mortality at 80 mg/kg: six mice per group, read-out: Mortality (within 30 days) (converted)
Method: The ovarian cancer intraperitoneal metastasis animal model is one of most classic animal models for studying anti-ovarian cancer metastasis drug. Sixty 5 to 6-week-old female nudemice with similar weight (BALB/c-nu/nu) were chosen. SK-OV3 (high metastasis type ovarian cancer cell line) stably expressing green fluorescence protein was screened, and prepared into a cell suspension of 2×10^6 cells/100 μl with serum-free PRMI1640 medium. […] Three weeks later, the cancer was detected with a small animal in vivo imaging apparatus (Xenogen, School of Medicine, Shanghai Jiaotong University) and photos thereof were taken. […] In the table, T represents the drug-treated group, and C represents the blank control group. T/C is (V/V0 of compound-treated group)/(V/V0 of blank control group) in which V represents the cancer volume of mouse on the day the detection was performed, and V0 represents the cancer volume of mouse on the day the administration begun.

HCT116 = experiment: Inhibitory activity for high metastasis type colon cancer cell line (MTT or CCK-8); format: cell-based; details: Homo sapiens, HCT-116; HCT116, 72 hours; read-out: IC50
Method: (§3) SW620 and HCT116 are two typical high metastasis type colon cancer cell lines. The colon cancer cell line was inoculated on 96-well cell culture plate in an amount of 6000 cells per well and cultured at 37° C. for 24 hours, and then treated solely with the compound added therein and cultured. Seventy-two hours later, MTT or CCK-8 method was used to detect the inhibitory activity of the compound for the two high metastasis type colon cancer cell lines.

SW620 = experiment: as above; format: cell-based; details: Homo sapiens, SW-620; SW620, 72 hours; read-out: IC50
Method: as §3

T1 sequence (O14980 whole entry, species assumed): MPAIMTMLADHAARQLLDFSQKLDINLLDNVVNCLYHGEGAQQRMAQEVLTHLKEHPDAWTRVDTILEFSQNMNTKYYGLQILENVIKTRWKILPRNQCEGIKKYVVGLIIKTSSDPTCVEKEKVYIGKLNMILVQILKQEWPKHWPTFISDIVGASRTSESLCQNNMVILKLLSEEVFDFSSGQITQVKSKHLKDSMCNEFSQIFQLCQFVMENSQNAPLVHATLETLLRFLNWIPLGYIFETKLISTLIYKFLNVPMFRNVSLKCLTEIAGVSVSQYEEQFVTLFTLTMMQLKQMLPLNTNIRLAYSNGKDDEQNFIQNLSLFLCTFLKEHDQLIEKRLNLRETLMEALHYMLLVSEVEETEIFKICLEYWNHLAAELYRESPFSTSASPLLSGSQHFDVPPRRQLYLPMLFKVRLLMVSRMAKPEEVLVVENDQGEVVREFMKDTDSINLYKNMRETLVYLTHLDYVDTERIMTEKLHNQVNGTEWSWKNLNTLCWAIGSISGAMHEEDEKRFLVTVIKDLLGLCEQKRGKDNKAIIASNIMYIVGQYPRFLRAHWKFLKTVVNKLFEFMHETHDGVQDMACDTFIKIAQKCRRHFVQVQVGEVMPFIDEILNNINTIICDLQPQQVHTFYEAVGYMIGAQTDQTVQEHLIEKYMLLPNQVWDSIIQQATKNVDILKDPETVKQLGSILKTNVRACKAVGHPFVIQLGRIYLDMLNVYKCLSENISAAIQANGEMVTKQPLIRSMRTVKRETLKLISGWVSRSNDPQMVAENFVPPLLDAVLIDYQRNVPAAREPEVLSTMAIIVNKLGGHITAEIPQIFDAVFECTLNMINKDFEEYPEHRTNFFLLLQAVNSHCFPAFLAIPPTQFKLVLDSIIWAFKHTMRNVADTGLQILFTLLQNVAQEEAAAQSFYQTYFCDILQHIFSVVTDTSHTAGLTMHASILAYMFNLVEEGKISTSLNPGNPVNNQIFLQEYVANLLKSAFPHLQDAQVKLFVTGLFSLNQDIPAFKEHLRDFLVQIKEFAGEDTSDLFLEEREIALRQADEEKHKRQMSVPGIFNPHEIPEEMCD

| SMILES | activity at 10 µg/mL (HMLE-Snail cell line) [%] | Activity (μM): inhibitory activity for XPO1 protein (full inhibitory concentration) (XPO1 protein) [µM] | also measured |
| --- | --- | --- | --- |
| Nc1ccc(O)c(C(=O)O)c1 [Compound 5-ASA, 5-aminosalicylic acid, reference compound] | – | – | Serum IL-6 level, Animal-1 (IL-6): 2.7 ng/mL; Serum IL-6 level, Animal-2 (IL-6): 2.2 ng/mL; Serum IL-6 level, Animal-3 (IL-6): 2.3 ng/mL; Serum TNF-α level, Animal-1 (TNF-α): 1.7 ng/mL; Serum TNF-α level, Animal-2 (TNF-α): 1.8 ng/mL; Serum TNF-α level, Animal-3 (TNF-α): 2.0 ng/mL; Macroscopic pathological score (IBD animal model): 4.0 ± 0.2; colon tissue bleeding and ulceration phenomena (in words) (IBD animal model; 80 mg/kg): small relief extent |
| CC(C)C[S+]([O-])/C=C/CCN=C=S (stereo not drawn) [Compound F-04, reference compound] | 60 to 65 | 10 to 15 | – |
| [O-][S+](/C=C/CCN=C=S)c1ccc(Br)cc1 (stereo not drawn) [Compound I-02] | 30 to 35 | 1 to 5 | Macroscopic pathological score (IBD animal model): 2.0 ± 0.4 |
| COc1cc([S+]([O-])/C=C/CCN=C=S)cc(C(F)(F)F)c1 (stereo not drawn) [Compound I-05] | 20 to 25 | 0.5 to 1 | – |
| NS(=O)(=O)c1cc([S+]([O-])/C=C/CCN=C=S)cc(C(F)(F)F)c1 (stereo not drawn) [Compound I-07] | 20 to 25 | 0.5 to 1 | – |
| N#Cc1cc([S+]([O-])/C=C/CCN=C=S)cc(C(F)(F)F)c1 (stereo not drawn) [Compound I-08] | 15 to 20 | 0.5 to 1 | Serum IL-6 level, Animal-1 (IL-6): 0.8 ng/mL; Serum IL-6 level, Animal-2 (IL-6): 0.7 ng/mL; Serum IL-6 level, Animal-3 (IL-6): 0.8 ng/mL; pIC50 (NCI-H1650): 6.70; pIC50 (NCI-H1975): 6.77; Serum TNF-α level, Animal-1 (TNF-α): 1.0 ng/mL; Serum TNF-α level, Animal-2 (TNF-α): 1.2 ng/mL; Serum TNF-α level, Animal-3 (TNF-α): 1.1 ng/mL; response vs control in vivo at 80 mg/kg ([1]; 504 h, read-out: T/C (%)): 23%; mortality at 80 mg/kg ([1]; 720 h): 0% |
| [O-][S+](/C=C/CCN=C=S)c1ccc(N2CCOCC2)cc1 (stereo not drawn) [Compound I-09] | 25 to 30 | 1 to 5 | – |
| [O-][S+](/C=C/CCN=C=S)c1ccc2c(c1)CCCC2 (stereo not drawn) [Compound I-10] | 30 to 35 | 1 to 5 | – |
| [O-][S+](/C=C/CCN=C=S)c1ccc2cc3ccccc3cc2c1 (stereo not drawn) [Compound I-12] | 30 to 35 | 1 to 5 | – |
| [O-][S+](/C=C/CCN=C=S)c1ccc2cccc3c2c1CC=C3 (stereo not drawn) [Compound I-13] | 30 to 35 | 1 to 5 | – |
| [O-][S+](/C=C/CCN=C=S)c1ccc2c(c1)Cc1ccccc1-2 (stereo not drawn) [Compound I-14] | 25 to 30 | 1 to 5 | – |
| [O-][S+](/C=C/CCN=C=S)c1cccnc1 (stereo not drawn) [Compound I-15] | 35 to 40 | 1 to 5 | – |
| [O-][S+](/C=C/CCN=C=S)c1cncc(C(F)(F)F)c1 (stereo not drawn) [Compound I-16] | 35 to 40 | 0.5 to 1 | – |
| [O-][S+](/C=C/CCN=C=S)c1ccc2ncccc2c1 (stereo not drawn) [Compound I-17] | 30 to 35 | 0.5 to 1 | response vs control in vivo at 80 mg/kg ([1]; 504 h, read-out: T/C (%)): 27%; mortality at 80 mg/kg ([1]; 720 h): 0% |
| [O-][S+](/C=C/CCN=C=S)c1ccc2ncncc2c1 (stereo not drawn) [Compound I-18] | 30 to 35 | 1 to 5 | – |
| O=c1ccc2cc([S+]([O-])/C=C/CCN=C=S)ccc2o1 (stereo not drawn) [Compound I-19] | 25 to 30 | 1 to 5 | – |
| [O-][S+](/C=C/CCN=C=S)c1nc2ccccc2s1 (stereo not drawn) [Compound I-20] | 30 to 35 | 1 to 5 | Serum IL-6 level, Animal-1 (IL-6): 1.0 ng/mL; Serum IL-6 level, Animal-2 (IL-6): 1.1 ng/mL; Serum IL-6 level, Animal-3 (IL-6): 1.0 ng/mL; Serum TNF-α level, Animal-1 (TNF-α): 1.3 ng/mL; Serum TNF-α level, Animal-2 (TNF-α): 1.2 ng/mL; Serum TNF-α level, Animal-3 (TNF-α): 1.1 ng/mL; Macroscopic pathological score (IBD animal model): 2.0 ± 0.3 |
| [O-][S+](/C=C/CCN=C=S)c1nc2cc(C(F)(F)F)ccc2s1 (stereo not drawn) [Compound I-21] | 30 to 35 | 1 to 5 | – |
| [O-][S+](/C=C/CCN=C=S)c1nc2ccccc2[nH]1 (stereo not drawn) [Compound I-22] | 30 to 35 | 1 to 5 | – |
| [O-][S+](/C=C/CCN=C=S)c1nc2ccc(C(F)(F)F)cc2[nH]1 (stereo not drawn) [Compound I-23] | 30 to 35 | 1 to 5 | – |
| COc1ccc2nc([S+]([O-])/C=C/CCN=C=S)[nH]c2c1 (stereo not drawn) [Compound I-24] | 20 to 25 | 1 to 5 | – |
| [O-][S+](/C=C/CCN=C=S)c1ccc(-c2ccccc2)cc1 (stereo not drawn) [Compound I-26] | 20 to 25 | 0.5 to 1 | – |
| COc1ccc(Sc2ccc([S+]([O-])/C=C/CCN=C=S)cc2)cc1 (stereo not drawn) [Compound I-28] | 15 to 20 | 0.5 to 1 | pIC50 (HCT116): 6.82; pIC50 (SW620): 6.72 |
| CC(=O)O[C@@]12CO[C@@H]1C[C@H](O)[C@@]1(C)C(=O)[C@H](O)C3=C(C)[C@@H](OC(=O)[C@H](O)[C@@H](NC(=O)OC(C)(C)C)c4ccccc4)C[C@@](O)([C@@H](OC(=O)c4ccccc4)[C@H]21)C3(C)C [Docetaxel, docetaxel] | 81 | – | response vs control in vivo at 20 mg/kg ([1]; 504 h, 20 mg/kg intraperitoneal injection once a day for 3 weeks, read-out: T/C (%)): 77%; mortality at 20 mg/kg ([1]; 720 h, read-out: Mortality (within 30 days)): 0% |
| C[S+]([O-])/C=C/CCN=C=S (stereo not drawn) [SFE, sulforaphene, reference compound] | – | 10 to 15 | – |
